Target: T1, PIk1 (Homo sapiens, UniProt P53350)
T1 construct: His tag (histidine tag) (N); made in house; host or cells: SF9 insect cells
Test: PIk1 kinase activity inhibition assay (33P incorporation into alpha casein, flash plates)
Format: biochemical
Settings: recombinant N-terminally histidine-tagged PIk1, alpha casein as substrate, 100 nM Li-ATP, 80 minutes at 30°C
Experimental: The inhibition of PIk1 kinase activity can be measured using recombinant PIk1 protein expressed as an N-terminally histidine-tagged protein in SF9 insect cells and alpha casein as substrate. The PIk1 assay is run in 96 well plates by incubating 50 to 100 ng per well recombinant PIk1, 500 ng per well alpha casein (Sigma, # C-6780) as substrate, 10 µl of compound of invention (test compounds were dissolved as 20 mM solutions in dimethylsulfoxide (DMSO) and subsequently diluted), and 100 nM Li-ATP (including ^33P-ATP) in 100 µl of reaction buffer ([…], pH 7.5; 3 mM MgCl2; 3 mM MnCl2; 3 µM Na-Orthovanadat; 1 mM DTT; 1 µg/ml PEG 8000) for 80 minutes at 30°C. The reactions are terminated by adding 100 µl stopping buffer (2% H3PO4 for 5 minutes) and are washed 3 times with washing solution (0,9% NaCl). Determining ^33P incorporated into the protein substrate alpha casein, the detection is based on the adhesion of the phosphorylated protein to the surface of scintillator-coated flash plates (Perkin Elmer, USA; # SMP-200). Phosphorylation of alpha casein is measured by counting the radioactivity bound to the plate for 60 sec. using a plate reader (Perkin Elmer, USA; Wallac Microbeta). By this method, the IC50 value of the PIk1 inhibition is determined as described above. […]

T1 sequence (P53350 whole entry): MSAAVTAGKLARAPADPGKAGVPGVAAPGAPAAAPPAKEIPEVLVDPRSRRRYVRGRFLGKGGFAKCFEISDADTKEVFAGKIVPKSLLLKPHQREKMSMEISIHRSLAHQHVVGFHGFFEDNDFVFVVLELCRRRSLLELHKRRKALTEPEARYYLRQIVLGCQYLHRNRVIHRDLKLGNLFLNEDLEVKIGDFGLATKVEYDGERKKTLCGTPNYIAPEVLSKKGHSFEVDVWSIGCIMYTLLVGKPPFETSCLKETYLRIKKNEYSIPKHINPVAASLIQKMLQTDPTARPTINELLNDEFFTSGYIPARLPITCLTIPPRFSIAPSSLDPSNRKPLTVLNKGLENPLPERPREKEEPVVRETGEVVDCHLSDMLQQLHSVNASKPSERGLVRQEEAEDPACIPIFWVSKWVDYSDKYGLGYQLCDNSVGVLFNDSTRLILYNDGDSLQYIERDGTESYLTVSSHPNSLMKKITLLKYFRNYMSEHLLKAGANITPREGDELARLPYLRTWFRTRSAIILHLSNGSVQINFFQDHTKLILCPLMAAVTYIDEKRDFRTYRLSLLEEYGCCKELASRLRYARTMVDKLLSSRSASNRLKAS

| SMILES | IC50 [nM] |
| --- | --- |
| COc1cc(C(=O)NC2CCN(C)CC2)ccc1Nc1ncc2c(cc(OCc3ccccc3)c(=O)n2C)n1 [Example 1, 4-{[7-(benzyloxy)-5-methyl-6-oxo-5,6-dihydropyrido[3,2-d]pyrimidin-2-yl]amino}-3-methoxy-N-(1-methylpiperidin-4-yl)benzamide] | < 1000 |
| C/C=C/c1c(OC)c(=O)n(C)c2cnc(Nc3ccc(C(=O)NC4CCN(C)CC4)cc3OC)nc12 [Example 2, 3-methoxy-4-({7-methoxy-5-methyl-6-oxo-8-[(E)-prop-1-en-1-yl]-5,6-dihydropyrido[3,2-d]pyrimidin-2-yl}amino)-N-(1-methylpiperidin-4-yl)benzamide] | < 100 |
| COc1cc(C(=O)NC2CCN(C)CC2)ccc1Nc1ncc2c(n1)c(-c1ccccc1)c(OC)c(=O)n2C [Example 3, 3-methoxy-4-[(7-methoxy-5-methyl-6-oxo-8-phenyl-5,6-dihydropyrido[3,2-d]pyrimidin-2-yl)amino]-N-(1-methylpiperidin-4-yl)benzamide] | < 100 |
| COc1cc(C(=O)NC2CCN(C)CC2)ccc1Nc1ncc2c(n1)c(-c1ccsc1)c(OC)c(=O)n2C [Example 4, 3-methoxy-4-{[7-methoxy-5-methyl-6-oxo-8-(3-thienyl)-5,6-dihydro-pyrido[3,2-d]pyrimidin-2-yl]amino}-N-(1-methylpiperidin-4-yl)benzamide] | < 10 |
| COc1cc(C(=O)NC2CCN(C)CC2)ccc1Nc1ncc2c(n1)c(-c1cccs1)c(OC)c(=O)n2C [Example 5, 3-methoxy-4-{[7-methoxy-5-methyl-6-oxo-8-(2-thienyl)-5,6-dihydro-pyrido[3,2-d]pyrimidin-2-yl]amino}-N-(1-methylpiperidin-4-yl)benzamide] | < 100 |
| COc1cc(C(=O)NC2CCN(C)CC2)ccc1Nc1ncc2c(n1)c(C1=CCCC1)c(OC)c(=O)n2C [Example 6, 4-[(8-cyclopent-1-en-1-yl-7-methoxy-5-methyl-6-oxo-5,6-dihydropyrido[3,2-d]pyrimidin-2-yl)amino]-3-methoxy-N-(1-methylpiperidin-4-yl)benzamide] | < 100 |
| COc1cc(C(=O)NC2CCN(C)CC2)ccc1Nc1ncc2c(cc(OCC3CC3)c(=O)n2C)n1 [Example 7, 4-{[7-(cyclopropylmethoxy)-5-methyl-6-oxo-5,6-dihydropyrido[3,2-d]pyrimidin-2-yl]amino}-3-methoxy-N-(1-methylpiperidin-4-yl)benzamide] | < 100 |
| COc1cc(C(=O)NC2CCN(C)CC2)ccc1Nc1ncc2c(cc(OCC3CCCC3)c(=O)n2C)n1 [Example 8, 4-{[7-(cyclopentylmethoxy)-5-methyl-6-oxo-5,6-dihydropyrido[3,2-d]pyrimidin-2-yl]amino}-3-methoxy-N-(1-methylpiperidin-4-yl)benzamide] | < 100 |
| COc1cc(C(=O)NC2CCN(C)CC2)ccc1Nc1ncc2c(cc(OCC3CCCCC3)c(=O)n2C)n1 [Example 9, 4-{[7-(cyclohexylmethoxy)-5-methyl-6-oxo-5,6-dihydropyrido[3,2-d]pyrimidin-2-yl]amino}-3-methoxy-N-(1-methylpiperidin-4-yl)benzamide] | < 1000 |
| COc1cc(C(=O)NC2CCN(C)CC2)ccc1Nc1ncc2c(n1)c(-c1ccco1)c(OC)c(=O)n2C [Example 10, 4-{[8-(2-furyl)-7-methoxy-5-methyl-6-oxo-5,6-dihydropyrido[3,2-d]pyrimidin-2-yl]amino}-3-methoxy-N-(1-methylpiperidin-4-yl)benzamide] | < 100 |
| COc1cc(C(=O)NC2CCN(C)CC2)ccc1Nc1ncc2c(n1)c(-c1ccoc1)c(OC)c(=O)n2C [Example 11, 4-{[8-(3-furyl)-7-methoxy-5-methyl-6-oxo-5,6-dihydropyrido[3,2-d]pyrimidin-2-yl]amino}-3-methoxy-N-(1-methylpiperidin-4-yl)benzamide] | < 100 |
| COc1cc(C(=O)NC2CCN(C)CC2)ccc1Nc1ncc2c(cc(OCC3CCOC3)c(=O)n2C)n1 (stereo not drawn) [Example 12, 3-methoxy-4-{[5-methyl-6-oxo-7-(tetrahydrofuran-3-ylmethoxy)-5,6-dihydropyrido[3,2-d]pyrimidin-2-yl]amino}-N-(1-methylpiperidin-4-yl)benzamide] | < 1000 |
| COc1cc(C(=O)NC2CCN(C)CC2)ccc1Nc1ncc2c(cc(OCC3CCCO3)c(=O)n2C)n1 (stereo not drawn) [Example 13, 3-methoxy-4-{[5-methyl-6-oxo-7-(tetrahydrofuran-2-ylmethoxy)-5,6-dihydropyrido[3,2-d]pyrimidin-2-yl]amino}-N-(1-methylpiperidin-4-yl)benzamide] | < 1000 |
| COc1cc(C(=O)NC2CCN(C)CC2)ccc1Nc1ncc2c(n1)c(C1CCCC1)c(OC)c(=O)n2C [Example 14, 4-[(8-cyclopentyl-7-methoxy-5-methyl-6-oxo-5,6-dihydropyrido[3,2-d]pyrimidin-2-yl)amino]-3-methoxy-N-(1-methylpiperidin-4-yl)benzamide] | < 100 |
| COc1cc(C(=O)NC2CCN(C)CC2)ccc1Nc1ncc2c(n1)c(C1=C(C)CCC1)c(OC)c(=O)n2C [Example 15, 3-methoxy-4-{[7-methoxy-5-methyl-8-(2-methylcyclopent-1-en-1-yl)-6-oxo-5,6-dihydropyrido[3,2-d]pyrimidin-2-yl]amino}-N-(1-methylpiperidin-4-yl)benzamide] | < 1000 |
| COc1cc(C(=O)NC2CCN(C)CC2)ccc1Nc1ncc2c(n1)c(Cl)c(OC)c(=O)n2C [Example 16, 4-[(8-chloro-7-methoxy-5-methyl-6-oxo-5,6-dihydropyrido[3,2-d]pyrimidin-2-yl)amino]-3-methoxy-N-(1-methylpiperidin-4-yl)benzamide] | < 1000 |
| COc1cc(C(=O)NC2CCN(C)CC2)ccc1Nc1ncc2c(n1)c(C1=C(C)CCCC1)c(OC)c(=O)n2C [Example 17, 3-methoxy-4-{[7-methoxy-5-methyl-8-(2-methylcyclohex-1-en-1-yl)-6-oxo-5,6-dihydropyrido[3,2-d]pyrimidin-2-yl]amino}-N-(1-methylpiperidin-4-yl)benzamide] | < 1000 |
| C/C=C/c1c(OCC)c(=O)n(C)c2cnc(Nc3ccc(C(=O)NC4CCN(C)CC4)cc3OC)nc12 [Example 18, 4-({7-ethoxy-5-methyl-6-oxo-8-[(1E)-prop-1-en-1-yl]-5,6-dihydropyrido[3,2-d]pyrimidin-2-yl}amino)-3-methoxy-N-(1-methylpiperidin-4-yl)benzamide] | < 100 |
| COc1cc(C(=O)NC2CCN(C)CC2)ccc1Nc1ncc2c(n1)c(C1CC1)c(OC)c(=O)n2C [Example 19, 4-[(8-cyclopropyl-7-methoxy-5-methyl-6-oxo-5,6-dihydropyrido[3,2-d]pyrimidin-2-yl)amino]-3-methoxy-N-(1-methylpiperidin-4-yl)benzamide] | < 100 |
| C/C=C/c1c(OC)c(=O)n(C)c2cnc(Nc3ccc(C(=O)NCc4cncn4C)cc3OC)nc12 [Example 20, 3-methoxy-4-({7-methoxy-5-methyl-6-oxo-8-[(1E)-prop-1-en-1-yl]-5,6-dihydropyrido[3,2-d]pyrimidin-2-yl}amino)-N-[(1-methyl-1H-imidazol-5-yl)methyl]benzamide] | < 100 |
| COc1cc(C(=O)NC2CCN(C)CC2)ccc1Nc1ncc2c(cc(OC)c(=O)n2C)n1 [Example 21, 3-methoxy-4-[(7-methoxy-5-methyl-6-oxo-5,6-dihydropyrido[3,2-d]pyrimidin-2-yl)amino]-N-(1-methylpiperidin-4-yl)benzamide] | < 1000 |
